From ChEMBL document CHEMBL5725201, “Cycloalkane derivatives” (2016) come the findings set out here.

The experiment is described as follows: Electrophysiological Assay: Current record was obtained by an automated patch clamp system IonWorks Quattro (Molecular Devices Corporation) in Population Patch Clamp mode. The operation was conducted in accordance with the operating procedure of the system. A Dulbecco's phosphate buffer containing calcium and magnesium (Sigma) was used as an extracellular fluid, and a low Cl-buffer (100 mM K-gluconate, 40 mM KCl, 3.2 mM MgCl2, 5 mM EGTA, 5 mM Hepes, pH 7.3) was used as an intracellular fluid. A test compound was dissolved in dimethylsulfoxide (DMSO) to prepare a 30 mM stock solution, so as to produce 4-fold serial dilutions with the extracellular fluid for attaining a DMSO concentration of 0.3% in measurement.The hNav 1.7/β1/β2 cells cultured to a 70-80% confluent state in a T150 flask (Sumilon) were washed with PBS and subsequently with versene (Invitrogen Corp.), and collected by allowing to react with 0.05% trypsin (Invitrogen Corp.) at 37° C. for 3 minutes. After washing with a culture medium, the resultant cells were suspended in an extracellular fluid at a concentration of […] so as to be used for the measurement. The cell membrane was perforated by using an intracellular fluid including 100 ug/ml amphotericin B (Sigma). Current response was obtained at a sampling frequency of 10 kHz. […]. It counts as cell-based. Background: The patch-clamp technique gives a direct electrical read-out from membranes.

For the compound `Cc1c(O[C@H]2CCCC[C@@H]2c2c[nH]nc2N)ccc(S(=O)(=O)Nc2ccncn2)c1F`, the IC50 was 100 nM.

For orientation: IC50 means the concentration needed to halve the response being measured.
